Measured values from patent publication US20060263895A1, “Method for monitoring the stereoselectivity and relative rate of organic chemical reactions” (priority 2005, published 2006).

Legend:
[1] = Double cuvette-ISES (in situ enzymatic screening) of Co(III)-salen mediated HKR of (±)-propylene oxide; conditions: for % ee of the 1,2-propanediol product, as predicted by double-cuvette ISES (upper number): bilayer of pH 8.6 buffer over 7.2 M epoxide in CHCl3, 0.25 mol % catalyst, 15-35 min, + = (S), − = (R); for ISES signal: over 35 min
Method: Aqueous reporting layers. containing TBADH/NADP+ (cuvette 1) and HLADH/NAD+ (cuvette 2), respectively, are then added. The increase in absorbance at 340 nm can be followed for several such sets in parallel by UV-vis spectrophotometry. The kinetic data are then used to make the double-cuvette ISES predictions.
A general procedure for double cuvette-ISES to estimate both enantioselectivities and relative rates for an array of catalysts being screened in parallel is presented below. The hydrolytic kinetic resolution (HKR) of (±) propylene oxide was chosen as model reaction.
Typically, quartz cuvettes with one cm light paths and with nominal one mL volumes were used. For each catalyst, a two cuvette screen was performed, with cuvette A containing HLADH, as (S)-propanediol-selective reporting enzyme, and cuvette B containing TBADH, as a (R)-propanediol-selective reporting enzyme. For each cuvette, the final volume was 800 μL (300 μL of organic layer; 500 μL of aqueous layer).
Both cuvettes A and B had the following composition: 150 μL (2.15 mmol) of (±)-propylene oxide (7.2 M in organic layer), 150 μL of CHCl3 and 0.25 mol % Co(III)-salen catalyst. The total organic layer volume was maintained as 300 μL in all catalyst screens.
(i) Cuvette A: 0.35 U HLADH (17.6 μL from a stock solution (0.02U/μL)), 7.2 mM β-NAD+(16.5 μL from a 220 mM stock) and 465.8 μL of 50 mM sodium pyrophosphate buffer, pH 8.8. The final pH was 8.6.
(ii) Cuvette B: 0.35 U TBADH (15.8 μL from a stock solution (0.022U/μL)) of, 2.2 mM β-NADP+ (5 μL from a 220 mM stock) and 479.5 μL of 50 mM sodium pyrophosphate buffer, pH 8.8. The final pH was 8.6. The total volume of the aqueous layer was maintained as 500 μL in both cuvettes in all ISES experiments.
C. Step by Step Protocol: A catalyst stock solution (22 μmol of catalyst in 620 μL CHCl3) was made up in a 1.5 ml microcentrifuge tube, and stored on ice, along with a stock of (±)-propylene oxide, in a separate tube. The organic layers were prepared by briefly vortexing 150 μL (5.4 μmol, 0.25 mol %) of the catalyst stock in CHCl3 with 150 μL (2.15 mmol) of (±)-propylene oxide in iced microcentrifuge tubes. These were loaded into 1 mL quartz cuvettes using precooled (refrigerator), disposable 1 mL syringes. The aqueous layers were then layered on top of the organic layers, by syringe, down the walls of the cuvette.

[2] = HKR of (±)-propylene oxide under standard neat 'Jacobsen conditions' (NMR conversion, chiral HPLC ee); conditions: for NMR conv. (time) / % ee (HPLC): loading 0.25 mol %; for % ee (HPLC): reaction stopped at the time given (mostly 3 h); for % ee (HPLC) / % ee of the 1,2-propanediol product, as observed by chiral HPLC (lower number): + = (S), − = (R); for % ee of the 1,2-propanediol product, as observed by chiral HPLC (lower number): neat propylene oxide, 0.55 equiv. H2O, 0.25 mol % catalyst, 3 h reaction time
Method: Salens in the fully synthetic, 42 member focused library that led to catalysts with appreciable activity, as indicated by double cuvette-ISES, were also evaluated ‘outside of the cuvette,’ under conditions more typically employed in HKR reactions. Specifically, these Co(III)-salen catalysts were evaluated in the HKR of (±)-propylene oxide, under neat conditions, similar to those described by Jacobsen and coworkers. Reactions were arbitrarily stopped after 3 hours, to obtain the enantiopurity of the 1,2-propanediol product at relatively early reaction times, for comparison with ISES predictions.
A typical procedure follows: To the Co(III)-salen catalyst derived from 7e (5.4 mg, 5.4 μmol, 0.25 mol %) and (±)-propylene oxide (125 mg, 2.15 mmol) at 0° C., was added water (21 μL, 1.18 mmol, 0.55 equiv.). The reaction mixture was securely capped, and allowed to warm to room temperature and stirred, most commonly for a total of 3 hours. Percent conversion at 3 hours was evaluated by 1H NMR of an aliquot (cooled to 0° C. for the transfer), in CDCl3. In most of these cases, the conversion was low enough after 3 hours, that the unreacted epoxide (bp 32° C.) was of relatively low ee, and was therefore removed by evaporation under aspirator vacuum. When the conversion was less than 5% by NMR after 3 hours, reactions were continued for longer times.
Upon termination of the reaction, the diol product was isolated by Kugelrohr distillation (˜120° C.-oven temp; 0.1 torr). To determine ee, the isolated diol was derivatized using p-bromobenzoyl imidazole (2.2 equiv.) in THF in the presence of NaH (4 equiv.) at room temperature for 5 min. The bis(p-bromobenzoate) esters obtained following sequential washes with 1 N HCl and saturated sodium bicarbonate, were of sufficient purity to be used directly for chiral HPLC analysis (Chiralcel OD, 99% […]). [drawing 23] [drawing 24] [drawing 25] [drawing 26] [drawing 27]

Molecule | ISES signal [1] | other results
CO[C@H]1[C@@H]2OC(C)(C)O[C@@H]2COC1(CN=Cc1cccc(C(C)(C)C)c1O)N=Cc1cccc(C(C)(C)C)c1O (some centres unmarked) [Salen 7b, N,N′-Bis(3′-tert-butylsalicylidene)-3-O-methyl-4,5-O-isopropylidene-1,2-dideoxy-Dfructopyranosyl-1,2-diamine] | – | % ee of the 1,2-propanediol product, as predicted by double-cuvette ISES (upper number) [1]: −28 % ee; NMR conv. (time) ([2]; 3 h): 9 (3 h) %; % ee (HPLC) [2]: −40 (R) % ee; % ee of the 1,2-propanediol product, as observed by chiral HPLC (lower number) [2]: −40 % ee
Oc1cc(OCc2ccccc2)ccc1C=NC[C@H](Cc1ccccc1)N=Cc1ccc(OCc2ccccc2)cc1O [Salen 3f, N,N′-Bis(4′-benzyloxysalicylidene)-(1S)-benzyl-1,2-ethylenediamine] | § (These catalysts gave ISES signals <20 mAbs min−1 over 35 min.) | –
Oc1c(C=NC[C@@H](N=Cc2ccc3ccccc3c2O)c2ccccc2)ccc2ccccc12 [Salen 2d, N,N′-Bis(1′-hydroxy-2′-naphthylidene)-(1S)-phenyl-1,2-ethylenediamine] | – | % ee of the 1,2-propanediol product, as predicted by double-cuvette ISES (upper number) [1]: −15 % ee; NMR conv. (time) ([2]; 22 h): 19 (22 h) %; % ee (HPLC) [2]: −54 (R) % ee; % ee of the 1,2-propanediol product, as observed by chiral HPLC (lower number) [2]: −54 % ee
Oc1ccc2ccccc2c1C=NC[C@H](Cc1cccc2ccccc12)N=Cc1c(O)ccc2ccccc12 [Salen 4c, N,N′-Bis(2′-hydroxy-1′-naphthylidene)-(1S)-(α-naphthylmethyl)-1,2-ethylenediamine] | § (These catalysts gave ISES signals <20 mAbs min−1 over 35 min.) | –
N,N′-Bis(3′-tert-butylsalicylidene)-[1R-(1α,2α,5α)]-2-amino-7,7-dimethyl-2-bicyclo[3.3.1]heptaneethanamine [Salen 1b] | – | % ee of the 1,2-propanediol product, as predicted by double-cuvette ISES (upper number) [1]: +68 % ee; % ee (HPLC) [2]: +75 (S) % ee; % ee of the 1,2-propanediol product, as observed by chiral HPLC (lower number) [2]: +75 % ee
Oc1ccc2ccccc2c1C=NC[C@@H](N=Cc1c(O)ccc2ccccc12)c1ccccc1 [Salen 2c, N,N′-Bis(2′-hydroxy-1′-naphthylidene)-(1S)-phenyl-1,2-ethylenediamine] | § (These catalysts gave ISES signals <20 mAbs min−1 over 35 min.) | –
Oc1c(C=NC[C@H](Cc2ccccc2)N=Cc2ccc3ccccc3c2O)ccc2ccccc12 [Salen 3d, N,N′-Bis(1′-hydroxy-2′-naphthylidene)-(1S)-benzyl-1,2-ethylenediamine] | – | % ee of the 1,2-propanediol product, as predicted by double-cuvette ISES (upper number) [1]: −54 % ee; NMR conv. (time) ([2]; 3 h): 10 (3 h) %; % ee (HPLC) [2]: −30 (R) % ee; % ee of the 1,2-propanediol product, as observed by chiral HPLC (lower number) [2]: −30 % ee
Oc1ccc2ccccc2c1C=NC[C@H](Cc1ccccc1)N=Cc1c(O)ccc2ccccc12 [Salen 3c, N,N′-Bis(2′-hydroxy-1′-naphthylidene)-(1S)-benzyl-1,2-ethylenediamine] | § (These catalysts gave ISES signals <20 mAbs min−1 over 35 min.) | NMR conv. (time) ([2]; time not given): none obs
COC1C2OC(C)(C)OC2COC1(CN=Cc1ccc(OCc2ccccc2)cc1O)N=Cc1ccc(OCc2ccccc2)cc1O (stereo not drawn) [Salen 7f, N,N′-Bis(4′-benzyloxysalicylidene)-3-O-methyl-4,5-O-isopropylidene-1,2-dideoxy-β-Dfructopyranosyl-1,2-diamine] | § (These catalysts gave ISES signals <20 mAbs min−1 over 35 min.) | –
Oc1cc(OCc2ccccc2)ccc1C=NC[C@@H](N=Cc1ccc(OCc2ccccc2)cc1O)c1ccccc1 [Salen 2f, N,N′-Bis(4′-benzyloxysalicylidene)-(1S)-phenyl-1,2-ethylenediamine] | § (These catalysts gave ISES signals <20 mAbs min−1 over 35 min.) | –
CO[C@H]1[C@@H]2OC(C)(C)O[C@@H]2COC1(CN=Cc1c(O)ccc2ccccc12)N=Cc1c(O)ccc2ccccc12 (some centres unmarked) [Salen 6c, N,N′-Bis(2′-hydroxy-1′-naphthylidene)-3-O-methyl-4,5-O-isopropylidene-1,2-dideoxy-Dfructopyranosyl-1,2-diamine] | § (These catalysts gave ISES signals <20 mAbs min−1 over 35 min.) | –
Oc1c(I)cc(I)cc1C=NC[C@H](Cc1ccccc1)N=Cc1cc(I)cc(I)c1O [Salen 3e, N,N′-Bis(3′,5′-diiodosalicylidene)-(1S)-benzyl-1,2-ethylenediamine] | § (These catalysts gave ISES signals <20 mAbs min−1 over 35 min.) | –
N,N′-Bis(4′-benzyloxysalicylidene)-[1R-(1α,2α,5α)]-2-amino-7,7-dimethyl-2-bicyclo[3.3.1]heptane-ethanamine [Salen 1f] | § (These catalysts gave ISES signals <20 mAbs min−1 over 35 min.) | –
CC1(C)CCN2CCC(C)(C)c3c(O)c(C=NC[C@H](Cc4cccc5ccccc45)N=Cc4cc5c6c(c4O)C(C)(C)CCN6CCC5(C)C)cc1c32 [Salen 4g, N,N′-Bis(8′-hydroxy-1′,1′,7′,7′-tetramethyljulolidinyl-9′-methylidene)-(1S)-α-naphthylmethyl-1,2-ethylenediamine] | § (These catalysts gave ISES signals <20 mAbs min−1 over 35 min.) | –
CC1(C)CCN2CCC(C)(C)c3c(O)c(C=NC[C@H](Cc4ccc5ccccc5c4)N=Cc4cc5c6c(c4O)C(C)(C)CCN6CCC5(C)C)cc1c32 [Salen 5g, N,N′-Bis(8′-hydroxy-1′,1′,7′,7′-tetramethyljulolidinyl-9′-methylidene)-(1S)-(β-naphthylmethyl)-1,2-ethylenediamine] | § (These catalysts gave ISES signals <20 mAbs min−1 over 35 min.) | –
N,N′-Bis(8′-hydroxy-1′,1′,7′,7′-tetramethyljulolidine-9′-methylidene)-[1R-(1α,2α,5α)]-2-amino-7,7-dimethyl-2-bicyclo[3.3.1]heptane-ethanamine [Salen 1g] | § (These catalysts gave ISES signals <20 mAbs min−1 over 35 min.) | –
Oc1ccc2ccccc2c1C=NC[C@H](Cc1ccc2ccccc2c1)N=Cc1c(O)ccc2ccccc12 [Salen 5c] | § (These catalysts gave ISES signals <20 mAbs min−1 over 35 min.) | –
COC1C2OC(C)(C)OC2COC1(CN=Cc1ccc2ccccc2c1O)N=Cc1ccc2ccccc2c1O (stereo not drawn) [Salen 7d, N,N′-Bis(1′-hydroxy-2′-naphthylidene)-3-O-methyl-4,5-O-isopropylidene-1,2-dideoxy-β-Dfructopyranosyl-1,2-diamine] | § (These catalysts gave ISES signals <20 mAbs min−1 over 35 min.) | –
Oc1cc(OCc2ccccc2)ccc1C=NC[C@H](Cc1ccc2ccccc2c1)N=Cc1ccc(OCc2ccccc2)cc1O [Salen 5f, N,N′-Bis(4′-benzyloxysalicylidene)-(1S)-(β-naphthylmethyl)-1,2-ethylenediamine] | § (These catalysts gave ISES signals <20 mAbs min−1 over 35 min.) | –
N,N′-Bis(2′-hydroxy-1′-naphthylidene)-[1R-(1α,2α,5α)]-2-amino-7,7-dimethyl-2-bicyclo[3.3.1]heptane-ethanamine [Salen 1c] | § (These catalysts gave ISES signals <20 mAbs min−1 over 35 min.) | –
